Measurements as given in PubChem BioAssay AID330 (DTP/NCI, 2004).
Values joined by “and” are separate entries in the source; they are usually repeats but may differ in a detail not shown here. Identical values can stand only once. Inconclusive results and toxic doses are left out. The calls were made as follows: active = survival T/C of 150% or more; inactive = T/C below 125% in these data. Square brackets hold non-standard residues; d marks the D form. Peptide text beside a SMILES is read from it. * marks the point of attachment. ξ: configuration not given here. Cbz = O=C(OCc1ccccc1)*; OBn = c1ccc(CO*)cc1; ξS = NC(CO)C(=O)O

Test system: P388 leukemia ip, CD2F1 mice, survival T/C
Assay: NCI In Vivo Anticancer Drug Screen. Data for tumor model P388 Leukemia (intraperitoneal) in CD2F1 (CDF1) mice
Conditions: endpoint: median survival time, higher = longer survival
Method in brief: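 Mice carrying the transplanted tumor received test compound or vehicle. Survival was recorded in each group, and the value is the treated-group measurement divided by that of the vehicle-treated control group.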

[1] = dose: 50.0 mg/kg/injection, schedule: Q01DX009 (ip), vehicle: Klucel (hydroxypropylcellulose) (HPC)
[2] = dose: 100.0 mg/kg/injection, schedule: Q01DX009 (ip), vehicle: Klucel (hydroxypropylcellulose) (HPC)
[3] = dose: 25.0 mg/kg/injection, schedule: Q04DX002 (ip), vehicle: Klucel (hydroxypropylcellulose) (HPC)
[4] = dose: 50.0 mg/kg/injection, schedule: Q04DX002 (ip), vehicle: Klucel (hydroxypropylcellulose) (HPC)
[5] = dose: 100.0 mg/kg/injection, schedule: Q04DX002 (ip), vehicle: Klucel (hydroxypropylcellulose) (HPC)
[6] = dose: 100.0 mg/kg/injection, schedule: Q04DX003 (ip), vehicle: saline with Tween-80
[7] = dose: 200.0 mg/kg/injection, schedule: Q04DX003 (ip), vehicle: saline with Tween-80
[8] = dose: 400.0 mg/kg/injection, schedule: Q04DX003 (ip), vehicle: saline with Tween-80
[9] = dose: 60.0 mg/kg/injection, schedule: Q01DX005 (ip), vehicle: saline with Tween-80
[10] = dose: 120.0 mg/kg/injection, schedule: Q01DX005 (ip), vehicle: saline with Tween-80
[11] = dose: 60.0 mg/kg/injection, schedule: Q01DX005 (ip), vehicle: saline
[12] = dose: 120.0 mg/kg/injection, schedule: Q01DX005 (ip), vehicle: saline
[13] = dose: 240.0 mg/kg/injection, schedule: Q01DX005 (ip), vehicle: saline
[14] = dose: 25.0 mg/kg/injection, schedule: Q01DX009 (ip), vehicle: saline with Tween-80
[15] = dose: 50.0 mg/kg/injection, schedule: Q01DX009 (ip), vehicle: saline with Tween-80
[16] = dose: 100.0 mg/kg/injection, schedule: Q01DX009 (ip), vehicle: saline with Tween-80
[17] = dose: 50.0 mg/kg/injection, schedule: Q01DX005 (ip), vehicle: Klucel (hydroxypropylcellulose) (HPC)
[18] = dose: 100.0 mg/kg/injection, schedule: Q01DX005 (ip), vehicle: Klucel (hydroxypropylcellulose) (HPC)
[19] = dose: 200.0 mg/kg/injection, schedule: Q01DX005 (ip), vehicle: Klucel (hydroxypropylcellulose) (HPC)
[20] = dose: 50.0 mg/kg/injection, schedule: Q01DX005 (ip), vehicle: saline with Tween-80
[21] = dose: 100.0 mg/kg/injection, schedule: Q01DX005 (ip), vehicle: saline with Tween-80
[22] = dose: 200.0 mg/kg/injection, schedule: Q01DX005 (ip), vehicle: saline with Tween-80

Measured: T/C

COc1ccc(C2=Nc3ccccc3SC(c3ccc(OC)cc3)C2)cc1 (centres undefined)
inactive: [1] 102 % of control | [2] 96 % of control | dose: 200.0 mg/kg/injection, schedule: Q01DX009 (ip), vehicle: Klucel (hydroxypropylcellulose) (HPC) 88 % of control

COc1ccc2nc3cc(Cl)ccc3c(NC(C)CCCN(C)C)c2n1 (centres undefined)
inactive: dose: 50.0 mg/kg/injection, schedule: Q01DX005 (ip), vehicle: saline 102 % of control | dose: 100.0 mg/kg/injection, schedule: Q01DX005 (ip), vehicle: saline 110 % of control

FC(F)(F)C1(C(F)(F)F)O[Si]2(OC(C(F)(F)F)(C(F)(F)F)c3ccccc32)c2ccccc21 (tested in a mixture with another compound)
inactive: [3] 109 % of control | [4] 94 % of control | [5] 100 % of control and 102 % of control

Clc1ccccc1C=Nc1ccc(N=Cc2ccccc2Cl)cc1
inactive: dose: 100.0 mg/kg/injection, schedule: Q04DX002 (ip), vehicle: saline with Tween-80 97 % of control | dose: 200.0 mg/kg/injection, schedule: Q04DX002 (ip), vehicle: saline with Tween-80 91 % of control | dose: 400.0 mg/kg/injection, schedule: Q04DX002 (ip), vehicle: saline with Tween-80 92 % of control

CC(=O)N1C(=O)N(Cl)C(=O)C1(C)c1cccs1 (centres undefined)
inactive: [6] 100 % of control | [7] 95 % of control | [8] 90 % of control

CSc1nc(NC2OCC(O)C(O)C2O)c(C=O)c(=O)n1C (centres undefined)
inactive: [9] 96 % of control | [10] 97 % of control

CC(C)=CCc1c(-c2ccc(O)cc2O)oc2c([C@H]3C=C(C)CC(c4ccc(O)cc4O)[C@@H]3C(=O)c3ccc(O)cc3O)c(O)cc(O)c2c1=O (some centres undefined)
inactive: dose: 8.75 mg/kg/injection, schedule: Q01DX005 (ip), vehicle: Klucel (hydroxypropylcellulose) (HPC) 99 % of control | dose: 17.5 mg/kg/injection, schedule: Q01DX005 (ip), vehicle: Klucel (hydroxypropylcellulose) (HPC) 98 % of control | dose: 35.0 mg/kg/injection, schedule: Q01DX005 (ip), vehicle: Klucel (hydroxypropylcellulose) (HPC) 92 % of control | dose: 70.0 mg/kg/injection, schedule: Q01DX005 (ip), vehicle: Klucel (hydroxypropylcellulose) (HPC) 92 % of control | dose: 140.0 mg/kg/injection, schedule: Q01DX005 (ip), vehicle: Klucel (hydroxypropylcellulose) (HPC) 108 % of control

COC(=O)C1CO[C@@H](C(C)(C)C)N1C=O (some centres undefined)
inactive: [11] 104 % of control | [12] 110 % of control | [13] 101 % of control

O=C1OC2(CCCC2)OC(=O)C1=C/C=C/c1ccc([N+](=O)[O-])o1
inactive: dose: 50.0 mg/kg/injection, schedule: Q04DX003 (ip), vehicle: saline with Tween-80 99 % of control | [6] 100 % of control and 114 % of control and 96 % of control | [7] 102 % of control and 112 % of control and 96 % of control | [8] 103 % of control and 121 % of control and 86 % of control | dose: 800.0 mg/kg/injection, schedule: Q04DX003 (ip), vehicle: saline with Tween-80 115 % of control

Cc1cc2nc(Cc3nc4cc(C)c(C)cc4[nH]3)[nH]c2cc1C
inactive: [14] 90 % of control | [15] 90 % of control | [16] 100 % of control and 95 % of control | dose: 200.0 mg/kg/injection, schedule: Q01DX009 (ip), vehicle: saline with Tween-80 90 % of control

COc1cc2c3c4c(ccc3c1OC)CCCN4CC2
inactive: dose: 50.0 mg/kg/injection, schedule: Q01DX005 (ip), vehicle: Klucel + Tween-80 99 % of control | dose: 100.0 mg/kg/injection, schedule: Q01DX005 (ip), vehicle: Klucel + Tween-80 97 % of control

COc1ccc(C2=C(c3ccccc3)C(=O)C3(c4ccccc4)CC23c2ccc(OC)cc2)cc1 (centres undefined)
inactive: [17] 97 % of control | [18] 89 % of control | [19] 92 % of control

FC(F)(F)C1(C(F)(F)F)OI(Cl)c2ccccc21
inactive: dose: 12.5 mg/kg/injection, schedule: Q04DX002 (ip), vehicle: Klucel (hydroxypropylcellulose) (HPC) 99 % of control | [3] 99 % of control | [4] 98 % of control

CCCCCCCC/C=C\CCCCCCCC(=O)OCCCCCCCCCCCCCC
inactive: dose: 12.5 mg/kg/injection, schedule: Q01DX001 (ip), vehicle: other 100 % of control | dose: 25.0 mg/kg/injection, schedule: Q01DX001 (ip), vehicle: other 90 % of control | dose: 50.0 mg/kg/injection, schedule: Q01DX001 (ip), vehicle: other 100 % of control

Cc1ccc(S(=O)(=O)/N=S(/C)c2ccccc2)cc1 (centres undefined)
inactive: [6] 110 % of control | [7] 100 % of control | [8] 120 % of control

CC(C)(C)c1cc(NC(=O)C(F)(F)F)c(Cl)c(C(C)(C)C)c1O
inactive: [17] 109 % of control | [18] 100 % of control | [19] 108 % of control

COc1c(COC(C)=O)ccc2c1C(=O)c1ccccc1C2=O
inactive: [5] 108 % of control | dose: 200.0 mg/kg/injection, schedule: Q04DX002 (ip), vehicle: Klucel (hydroxypropylcellulose) (HPC) 92 % of control | dose: 400.0 mg/kg/injection, schedule: Q04DX002 (ip), vehicle: Klucel (hydroxypropylcellulose) (HPC) 93 % of control

CC1=CC2c3cccc4[nH]cc(c34)CC2N(C)C1 (centres undefined)
inactive: dose: 2.5 mg/kg/injection, schedule: Q01DX009 (ip), vehicle: saline 114 % of control and 116 % of control | dose: 5.0 mg/kg/injection, schedule: Q01DX009 (ip), vehicle: saline 117 % of control | dose: 10.0 mg/kg/injection, schedule: Q01DX009 (ip), vehicle: saline 116 % of control and 120 % of control

COc1cc2cc(/C(C)=N/OCC3CO3)c(Cl)nc2cc1OC (centres undefined)
inactive: [20] 96 % of control | [21] 93 % of control | [22] 92 % of control

CCOC(=O)Cc1csc(=S)n1-c1ccccc1
inactive: [20] 102 % of control | [21] 102 % of control | [22] 90 % of control

O=C(CNC(=O)C(CO)NC(=O)OCc1ccccc1)NCC(=O)OCc1ccccc1 (stereo not drawn) (Cbz-[ξS]-Gly-Gly-OBn)
inactive: [17] 101 % of control | [18] 99 % of control | [19] 97 % of control

Cc1ccc(C(=O)C(CN(C)C)CN(C)C)cc1
inactive: dose: 3.12 mg/kg/injection, schedule: Q01DX009 (ip), vehicle: saline 101 % of control and 90 % of control | dose: 3.13 mg/kg/injection, schedule: Q01DX009 (ip), vehicle: saline 112 % of control | dose: 6.25 mg/kg/injection, schedule: Q01DX009 (ip), vehicle: saline 110 % of control [middle of 4 runs] | dose: 12.5 mg/kg/injection, schedule: Q01DX009 (ip), vehicle: saline 107 % of control and 118 % of control

CN(C)N(P(c1ccccc1)c1ccccc1)P(c1ccccc1)c1ccccc1
inactive: [6] 93 % of control | [7] 92 % of control | [8] 94 % of control

C/C(CCl)=N/NC1=NC(C)(CCC2(C)N=C(N/N=C(/C)CCl)SP2(=O)NC23CC4CC(CC(C4)C2)C3)P(=O)(NC23CC4CC(CC(C4)C2)C3)S1 (centres undefined)
inactive: [9] 105 % of control | [10] 100 % of control | dose: 240.0 mg/kg/injection, schedule: Q01DX005 (ip), vehicle: saline with Tween-80 91 % of control

CN(C)c1ccc2c(c1)Sc1cc(N(C)C)ccc1N2C(=O)c1ccccc1
inactive: dose: 12.5 mg/kg/injection, schedule: Q01DX009 (ip), vehicle: Klucel (hydroxypropylcellulose) (HPC) 105 % of control | dose: 25.0 mg/kg/injection, schedule: Q01DX009 (ip), vehicle: Klucel (hydroxypropylcellulose) (HPC) 103 % of control | [1] 102 % of control | [2] 98 % of control

OCC1OC(Sc2ncc[nH]2)C(O)C(O)C1O (centres undefined)
inactive: [11] 94 % of control and 97 % of control | [12] 95 % of control and 96 % of control | [13] 97 % of control and 90 % of control

CCCCN1CN(CCCC)CN(C(=S)c2c(Cl)cccc2Cl)C1
inactive: [14] 102 % of control | [15] 102 % of control | [16] 105 % of control

C[As](C)SCCO
inactive: dose: 12.5 mg/kg/injection, schedule: Q01DX005 (ip), vehicle: saline with Tween-80 110 % of control | dose: 25.0 mg/kg/injection, schedule: Q01DX005 (ip), vehicle: saline with Tween-80 115 % of control | [20] 117 % of control | dose: 50.0 mg/kg/injection, schedule: Q04DX002 (ip), vehicle: saline with Tween-80 109 % of control
